# Data taken from PMC4457452 (2013).
# Key:
# [1] = tested on: AATT hairpin duplex (DNA, hairpin) CGAATTCGTTTTCGAATTCG; experiment: SPR steady state; conditions: 50 mM KCl, 10 mM HEPES, 3 mM EDTA, pH 7.3
# [2] = tested on: Tel22 (DNA, G4) AGGGTTAGGGTTAGGGTTAGGG; experiment: UV thermal melting, 295 nm; conditions: 50 mM KCl, 10 mM TRIS, 3 mM EDTA, pH 7.3
# [3] = tested on: AATT hairpin duplex (DNA, hairpin) CGAATTCGTTTTCGAATTCG; experiment: UV thermal melting, 260 nm; conditions: 50 mM KCl, 10 mM TRIS, 3 mM EDTA, pH 7.3
# [4] = tested on: MYC22 (DNA, G4) TGAGGGTGGGGAGGGTGGGGAA; experiment: 1H NMR imino proton titration; conditions: 20 mM potassium phosphate; pH 6.02, 35 °C, 100 µM; 3'-end tetrad first, then 5'-end tetrad
# [5] = tested on: Tel22 (DNA, G4) AGGGTTAGGGTTAGGGTTAGGG; experiment: SPR steady state, two-site fit; conditions: 50 mM KCl; 10 mM HEPES, 3 mM EDTA, pH 7.3; site 1 of 2
# [6] = tested on: cMYC19 (DNA, G4) AGGGTGGGGAGGGTGGGGA; experiment: SPR steady state, two-site fit; conditions: 50 mM KCl; 10 mM HEPES, 3 mM EDTA, pH 7.3; site 1 of 2
# [7] = tested on: Tel22 (DNA, G4) AGGGTTAGGGTTAGGGTTAGGG; experiment: SPR; conditions: 50 mM KCl; 10 mM HEPES, 3 mM EDTA, pH 7.3; ligand range 10 nM–10 µM
# [8] = tested on: cMYC19 (DNA, G4) AGGGTGGGGAGGGTGGGGA; experiment: SPR; conditions: 50 mM KCl; 10 mM HEPES, 3 mM EDTA, pH 7.3; ligand range 10 nM–10 µM
# [9] = tested on: AATT hairpin duplex (DNA, hairpin) CGAATTCGTTTTCGAATTCG; experiment: SPR; conditions: 50 mM KCl; 10 mM HEPES, 3 mM EDTA, pH 7.3; ligand range 10 nM–10 µM
SMILES,K1 [5] [M⁻¹],K1 [6] [M⁻¹],K1 [1],∆Tm ([3]; drug:DNA 6:1) [°C],∆Tm ([2]; drug:DNA 6:1) [°C],also measured
CC1(C)C(/C=C/C=C2/N(CCC[N+](C)(C)C)c3ccc(Br)cc3C2(C)C)=[N+](CCC[N+](C)(C)C)c2ccc(Br)cc21,5.5e+06,1.2e+07,,,,"K1 ([1]; up to 1 µM): < 10^5 M^−1; ∆Tm ([2]; drug:DNA 6:1, DNA 3 µM): 24 °C; ∆Tm ([3]; drug:DNA 6:1, DNA 3 µM): 0 °C; binding [4]: yes"
CC1(C)C(/C=C/C=C2/N(CCC[N+](C)(C)C)c3ccc(C(=O)O)cc3C2(C)C)=[N+](CCC[N+](C)(C)C)c2ccc(C(=O)O)cc21,830000,5e+06,< 10^5 M^−1,3,,
CC1(C)C(/C=C/C=C2/N(CCC[N+](C)(C)C)c3ccc(Cl)cc3C2(C)C)=[N+](CCC[N+](C)(C)C)c2ccc(Cl)cc21,2.7e+06,8.4e+06,< 10^5 M^−1,,19,
CC1(C)C(/C=C/C=C2/N(CCC[N+](C)(C)C)c3ccc(F)cc3C2(C)C)=[N+](CCC[N+](C)(C)C)c2ccc(F)cc21,5.9e+06,6.3e+06,< 10^5 M^−1,,,
CC1(C)C(/C=C/C=C2/N(CCC[N+](C)(C)C)c3ccc(I)cc3C2(C)C)=[N+](CCC[N+](C)(C)C)c2ccc(I)cc21,2.1e+06,7.8e+06,< 10^5 M^−1,3,21,
CC1(C)C(/C=C/C=C2/N(CCC[N+](C)(C)C)c3ccc(S(=O)(=O)O)cc3C2(C)C)=[N+](CCC[N+](C)(C)C)c2ccc(S(=O)(=O)O)cc21,820000,570000,< 10^5 M^−1,,1,
CC1(C)C(/C=C/C=C2/N(CCC[N+](C)(C)C)c3ccccc3C2(C)C)=[N+](CCC[N+](C)(C)C)c2ccccc21,390000,3.8e+06,,2,14,K1 ([1]; up to 10 µM): < 10^5 M^−1; binding [4]: yes
CC1(C)C(/C=C/C=C2/N(CCCc3ccccc3)c3ccccc3C2(C)C)=[N+](CCCc2ccccc2)c2ccccc21,130000,1.2e+06,< 10^5 M^−1,,11,
CCCCN1/C(=C/C=C/C2=[N+](CCCC)c3ccccc3C2(C)C)C(C)(C)c2ccccc21,,,,,0,binding [7]: no; binding [8]: no; binding [9]: no
